This data set can be described thus: Evaluation of the plasma half-life for Hydrochlorothiazide for at least 24 hours following administration of Hydrochlorothiazide. In kind it is ADME, organism-based. The conditions noted are these: human; dosed compound id 30, dosed compound name HYDROCHLOROTHIAZIDE, tissue Plasma.

From ChEMBL document CHEMBL3832055, “DailyMed|setid=e57a1fb3-1bf5-4562-982c-52a6f5fb36ed | HYDROCHLOROTHIAZIDE - hydrochlorothiazide tablet | Aphena Pharma Solutions - Tenness ee, LLC” come the findings set out here.

Broadly, the half-life is the time needed for the level to fall by half in the phase considered. High values mean slow decline, low ones rapid decline.

SMILES strings stand for the structures.

`NS(=O)(=O)c1cc2c(cc1Cl)NCNS2(=O)=O` [HYDROCHLOROTHIAZIDE] registered a half-life of 5.6 to 14.8 h.
